Results: ChEMBL document CHEMBL3507680, “University of Dundee, Gates Library screen for HepG2 cell viability”

Experiment: Human HepG2 cell viability assay in 384 well format
Format: toxicity, cell-based
Set-up: dose 125 nL, time 70.5 hour; concentration not given beside the values
Conditions: HepG2 cells, read-out: Inhibition

| SMILES | cytotoxicity at 70.5 h [%] |
| --- | --- |
| CN1CCOC(CNC(=O)Cc2coc(-c3ccccc3)n2)C1 (configuration not stated) | -13.1 |
| OC(CN1CCC(c2ccn[nH]2)CC1)c1ccc(F)cc1F (configuration not stated) | -5.74 |
| CN(Cc1ccncc1)C(=O)NCc1nnc2n1CCCCC2 | 22.9 |
| CN(Cc1ccc(O)cc1)C(=O)NCc1nnc2n1CCCCC2 | -2.24 |
| CCN(CC1CCCO1)C(=O)Nc1ccc(OC)c(C)c1 (configuration not stated) | -8.02 |
| O=C(c1ccc(-n2cnnn2)cc1)N1CCCC(n2ccnc2)C1 (configuration not stated) | -6.98 |
| CC(C)c1n[nH]c(C(=O)Nc2ccccn2)c1Br | 12.4 |
| CN(Cc1ccc(N(C)C)cc1)C(=O)NCc1nnc2n1CCC2 | -5.5 |
| Cc1cccc(NC2CCN(C(=O)Nc3ccc(F)c(F)c3)CC2)n1 | -4.64 |
| Cc1cnn(CC2CCCN2C(=O)c2cccc(S(C)(=O)=O)c2)c1 (configuration not stated) | -2.98 |
| Cc1cnn(CC2CCCN2C(=O)c2cccc(-n3ccc(C)n3)c2)c1 (configuration not stated) | -7.87 |
| Cc1cccc(NC2CCN(C(=O)Nc3ccccn3)CC2)n1 | 2.1 |
| CCN1CCOC(CNCc2cccc(OCc3ccccn3)c2)C1 (configuration not stated) | -6.84 |
| O=C(CCc1cccc(F)c1F)N1CCCC(n2cncn2)C1 (configuration not stated) | -6.22 |
| CN(Cc1ccc(F)cc1)C(=O)NCc1nnc2n1CCC2 | -10.4 |
| Cc1nccn1CC1CCCN1S(=O)(=O)Cc1cccc(F)c1 (configuration not stated) | 18.7 |
| Fc1cccc(-c2nc(CN3CCCC3Cn3cncn3)co2)c1 (configuration not stated) | 8.65 |
| Cc1nccn1CC1CCCN1S(=O)(=O)Cc1cccc(C#N)c1 (configuration not stated) | 29.1 |
| Fc1ccc(-c2nc(CN3CCCC3Cn3cncn3)co2)cc1 (configuration not stated) | 17.6 |
| CC(C)(C)c1nc(CN2CCC(c3ccnn3CCO)CC2)no1 | -0.084 |
| c1ccc(-c2cnc(CN3CCCC3Cn3cccn3)o2)cc1 (configuration not stated) | 1.69 |
| COc1ccc(-c2cnc(CN3CCCC3Cn3cccn3)o2)cc1 (configuration not stated) | -7.48 |
| Cc1nc(C2CCCN(C(=O)c3c[nH]c(C(C)C)n3)C2)no1 (configuration not stated) | -2.72 |
| c1ccc(-c2nc(CN3CCCCC3Cn3cncn3)co2)cc1 (configuration not stated) | -0.916 |
| NC(=O)C1CCN(C(=O)CCCc2nnc(-c3ccccc3)o2)CC1 | -10.4 |
| Cc1cc(CN2CCN(C(=O)NCc3ccc(C)s3)CC2)on1 | -2.93 |

| SMILES | cytotoxicity at 70.5 h [%] |
| --- | --- |
| CCc1noc(CN2CCC(c3ccnn3CCO)CC2)n1 | -5.37 |
| CC(C)c1noc(CN2CCC(c3ccnn3CCO)CC2)n1 | -3.73 |
| O=C(CCCc1nnc(-c2ccccc2)o1)N1CCN(C2CC2)CC1 | 0.0439 |
| COc1ccccc1CNC(=O)N1CCN(Cc2cc(C)on2)CC1 | -2.55 |
| NC(=O)C1CCN(C(=O)CCCc2nnc(-c3ccccc3)o2)C1 (configuration not stated) | -0.453 |
| c1ccc(-c2nc(CN3CCCC3Cn3cncn3)co2)cc1 (configuration not stated) | -7.46 |
| Clc1ccc(-c2nc(CN3CCCC3Cn3cncn3)co2)cc1 (configuration not stated) | -1.1 |
| Cc1ccc(-c2nc(CN3CCCC3Cn3cncn3)co2)cc1 (configuration not stated) | 1.81 |
| CC(O)CN1CCN(C(=O)c2cccn2Cc2ccccc2)CC1 (configuration not stated) | -1.63 |
| O=C(CCCc1nc(-c2ccccc2)no1)N1CCN(CCO)CC1 | 17.6 |
| CCC(O)CN1CCN(C(=O)c2cccc(CC#N)c2)CC1 (configuration not stated) | 1.07 |
| CN(C)c1ncccc1CNC(=O)N1CCCC1CN1CCCC1 (configuration not stated) | 24.9 |
| COc1ccc(-c2nc(CN3CCc4cnc(C)nc4C3)no2)cc1 | -6.23 |
| COCCc1noc(CN(C)C2CCCN(c3cccnn3)C2)n1 (configuration not stated) | 22.9 |
| CC(C)c1ncc2c(n1)CN(Cc1noc(-c3ccccc3)n1)CC2 | 0.861 |
| CC(NC(=O)c1cccs1)C(=O)NCc1ccccn1 (configuration not stated) | -2.68 |
| CCn1cnnc1CNC(=O)NC(c1cccs1)C1CCCC1 (configuration not stated) | 19.6 |
| COc1ncccc1CNC(=O)N1CCCC1c1ccsc1 (configuration not stated) | -0.312 |
| Cc1ncsc1C(=O)NC1CCN(CCC#N)CC1 | 16.5 |
| O=C(NCc1cccnc1N1CCCCC1)c1cccs1 | -3.28 |
| Cc1ncsc1C(=O)NC1CCN(CCCC#N)CC1 | -1.22 |
| Cc1cc(NC(=O)CN2CCc3cncnc3C2)on1 | 3.49 |
| Cc1nc(C)n(CC2CCCN2CC(=O)NC2CCOCC2)n1 (configuration not stated) | 2.61 |
| CCc1nnc(CN2CCN(CC(O)c3ccccc3)CC2)o1 (configuration not stated) | -1.5 |
| Cc1cc(C)n(CC2CCCCN2CC(=O)NC2CCOCC2)n1 (configuration not stated) | 18.3 |
| O=C(c1cc2ccccc2[nH]1)N1CCCCC1Cn1cccn1 (configuration not stated) | -1.58 |

| SMILES | cytotoxicity at 70.5 h [%] |
| --- | --- |
| Cc1cc(C)n(C2CN(CC(O)c3ccc(C(F)(F)F)cc3)C2)n1 (configuration not stated) | -4.01 |
| Cc1ncsc1C(=O)NC1CCN(Cc2ccc(C(F)(F)F)cc2)CC1 | 26.5 |
| CCOCC(O)CN1CCN(C(=O)c2ccc(N(C)C)nn2)CC1 (configuration not stated) | 24.3 |
| CC(c1c(F)cccc1F)N1CCN(Cc2nccn2C)CC1 (configuration not stated) | 24.5 |
| Cn1c(C2CC2)nc2c1CCN(CC(=O)Nc1ccncc1)C2 | 4.27 |
| CCN(Cc1ccc2c(c1)OCO2)C(=O)NC(C)Cn1ccnc1 (configuration not stated) | 1.66 |
| CCc1nc(CN2CCCN(C(=O)CC(F)(F)F)CC2)cs1 | 1.28 |
| Cn1c(C2CC2)nc2c1CCN(CCOc1ccccc1C#N)C2 | 23.9 |
| COc1ncccc1NC(=O)C1CC1 | -1.48 |
| CNC(=O)CN1CCC(NC(=O)Cc2ccc3c(c2)OCCO3)CC1 | 0.523 |
| Cc1ccccc1C(=O)NCc1ccnc(N(C)C)c1 | 0.094 |
| COc1ncccc1NC(=O)NC1CCOc2ccccc21 (configuration not stated) | -14.2 |
| O=C(c1cc(C2CC2)[nH]n1)N1CCN(Cc2ccsc2)CC1 | 22 |
| COc1cccc(C(=O)NS(=O)(=O)c2cccc(C#N)c2)c1OC | -13.8 |
| Cc1ccc(C(=O)N2CCN(Cc3nc(C(C)C)no3)CC2)c(=O)[nH]1 | 1.28 |
| CC(NC(=O)Cc1cccs1)c1nnc2n1CCCCC2 (configuration not stated) | -23.9 |
| O=C1NCCN1C1CCCN(Cc2coc(-c3ccc(F)cc3)n2)C1 (configuration not stated) | 31 |
| Cc1cnn(CC2CN(Cc3nccn3C)CCO2)c1 (configuration not stated) | -10.6 |
| Cc1nnc2n1CCN(Cc1csc(-c3ccc(F)cc3)n1)C2 | -12.1 |
| c1ccc2oc(N3CCCCC3Cn3cncn3)nc2c1 (configuration not stated) | 25.6 |
| Cc1ccc(NC2CCN(C(=O)CCc3ccco3)CC2)nn1 | -9.84 |
| CC(C)c1ncc2c(n1)CN(Cc1nc(-c3ccoc3)no1)CC2 | -16.7 |
| O=C(CN1CC(n2cccn2)C1)NCCCc1ccccc1 | -8.01 |
| CC(=O)Nc1nc(CN2CCn3c(nnc3C3CC3)C2)cs1 | -7.7 |
| CC1CN(CC(=O)Nc2cccnc2)CCN1c1nccs1 (configuration not stated) | -12.4 |
| Cc1cc(NC(=O)CN2CCN(c3nccs3)C(C)C2)n(C)n1 (configuration not stated) | -7.64 |

| SMILES | cytotoxicity at 70.5 h [%] |
| --- | --- |
| Cc1nc(C)n(CC2CCCN(CCOc3cccc(C#N)c3)C2)n1 (configuration not stated) | 40.4 |
| COc1ccccc1N1CCC(CNCc2cccc(C#N)c2)C1 (configuration not stated) | 35.6 |
| CC(C)c1nc(C2CCCN(C(=O)CCn3ccnc3)C2)no1 (configuration not stated) | 13.6 |
| Cc1noc(CN(Cc2ccc3c(c2)OCO3)Cc2ccc(C)o2)n1 | -15.7 |
| COc1ccccc1C1(C(=O)NCCN2CCOCC2)CCOCC1 | -17.1 |
| Cc1cnn(C2CCCN(C(=O)CCc3nccs3)C2)c1 (configuration not stated) | 17.1 |
| CSC(C)C(=O)N1CCCN(Cc2cnn(C(C)C)c2)CC1 (configuration not stated) | -12 |
| Cc1cnn(C2CCCN(C(=O)CCCNc3ncccn3)C2)c1 (configuration not stated) | -14.5 |
| Cc1ccc(N2CCCN(C(=O)CC3CCCO3)CC2)nn1 (configuration not stated) | -18.7 |
| COc1ccccc1N1CCC(CNCc2cccc(OC)c2OC)C1 (configuration not stated) | 13.4 |
| CC(C)c1nc(C2CCCN(C(=O)CCCn3cncn3)C2)no1 (configuration not stated) | -16 |
| Cc1nnc(CN2CCC(N(C)Cc3nnc(C4CC4)n3C)C2)o1 (configuration not stated) | -21.8 |
| Cc1cnn(CC2CCCCN2Cc2nnc(-c3ccco3)o2)c1 (configuration not stated) | -4.33 |
| Cc1nn(CC(C)C)c(N(C)C)c1CNCc1cccnc1N(C)C | -13.5 |
| CC(C(=O)Nc1ccc(N2CCCC2)nc1)n1cncn1 (configuration not stated) | -12.1 |
| Cn1cnc(S(=O)(=O)NCCCN2CCOCC2)c1Cl | -14.4 |
| Cn1cnc(S(=O)(=O)NCCCN2CCCCCC2)c1Cl | -6.45 |
| Cc1nnc(C(C)N2CCN(Cc3ccc4c(c3)OCO4)CC2)o1 (configuration not stated) | 16.9 |
| Cc1nnc(C(C)N2CCN(Cc3ccc(C#N)cc3)CC2)o1 (configuration not stated) | -6.02 |
| Cc1cccc(-c2ccc(C(=O)NCCN(C)C3CC3)c(=O)[nH]2)c1 | -34.3 |
| COc1cc(CNC(=O)CNc2cc(Cl)ccc2OC)ccn1 | 3.6 |
| N#Cc1ccc(N2CCCN(C(=O)CC3CCCO3)CC2)cc1 (configuration not stated) | -15.2 |
| Cc1nc(N2CCN(C(=O)c3ccsc3)CC2)c2cnn(C)c2n1 | -10.3 |
| Cc1nn(C)c(Cl)c1C1CCCN1C(=O)c1ccc2c(c1)OCO2 (configuration not stated) | -16.9 |
